What was measured:
[1] = tested on: IL-1β-stimulated cytokine expression in primary human corneal epithelial cells; test: IL-1β-stimulated cytokine production in primary human corneal epithelial cells (30-cytokine Luminex kit); details: primary HCECs, 10 ng/ml IL-1β, 18 h
Protocol: Primary HCECs were seeded in 24-well plates. […] Each treatment was performed in triplicate. Media were collected and used for determination of cytokine content using a 30-cytokine Luminex kit. Cell viability was determined by alamarBlue assay (LP06013).
Median fluorescence intensity (MFI) was used to obtain the concentration of each cytokines in pg/ml based on the standard curve of each cytokine assayed by Luminex. The linear range of the standard curve for each cytokine was used for determination of cytokine concentration. Duplicate values for each sample were averaged. Data were expressed as mean±SD. Statistical analysis was performed using one-way ANOVA-Dunnett's test, and P<0.05 was considered statistically significant.

[2] = tested on: IL-1β-induced PGE2 release in human conjunctival fibroblasts (HConF); test: IL-1β-induced PGE2 release in human conjunctival fibroblasts (ELISA); type: cell-based; details: 3-1000 nM, 18 hours
Protocol: Human conjunctival fibroblasts (HConF) were seeded in 24-well plates in complete Fibroblast Medium (FM) which contained 2% fetal bovine serum (FBS) and Fibroblast Growth Supplement (FGS). After reaching confluence (about 95%), cells were conditioned in basic FM that had been supplemented with 0.5% charcoal-dextran treated fetal bovine serum (CD-FBS) and without Fibroblast Growth Supplement (FGS) for 24 hours. […] Plates were performed in triplicate. Culture media were evaluated for PGE2 release by ELISA.

[3] = tested on: COX-2; test: COX-2 protein in IL-1β-induced human conjunctival fibroblasts (Western blot); type: cell-based; details: 2 h pretreatment, then 24 h with IL-1β
Protocol: Cells were washed with ice-cold PBS and lysed in cell lysis buffer (62.5 mM Tris-HCl, pH 6.8, 2% sodium dodecyl sulfate (SDS), 10% glycerol). Cells were sonicated, and centrifuged at 12.000 rpm and protein concentration was determined using the Micro BCA protein assay kit. Proteins in aliquots of cell lysate (˜20 μg protein) were separated by SDS-polyacrylamide electrophoresis (SDS-PAGE) on 10% gels and transferred to PVDF membranes. Membranes were blocked with 5% BSA and exposed to mouse anti-COX-2 antibody (Caymen). The blots were washed, and exposed to horseradish peroxidase-conjugated anti-mouse secondary antibody. After washing, blots were incubated in ECL (enhanced chemiluminescence) solutions and chemiluminescent bands were visualized using the FluorChem imaging system (AlphaInnotech, San Leandro, Calif.). Blots were then stripped and re-probed for glyceraldehyde 3-phosphate dehydrogenase (GAPDH) (Zymed) antibody as loading controls. The experiment was repeated 3 times. Analysis of Western blot band density for COX-2 and GAPDH in captured digital images was done using the Alpha-Innotech Chemi-Imager software (Alpha Innotech; San Leandro, Calif.). Levels of COX-2 protein were normalized to GAPDH.

For Cc1ccc2c(NCC(O)(CC(C)(C)c3cc(F)cc4c3OCC4)C(F)(F)F)cccc2n1 (centres unmarked) [BOL-303242-X], which “Effect on IL-1β-stimulated G-CSF production” value [1] is on record?
The value was “significantly inhibited”.

What about the “Effect on IL-1β-stimulated production of 6 cytokines (IL-6, IL-7, MCP-1, TGF-α, TNF-α and VEGF)” value ([1]; comparable potency) of the same compound?
Its value is “significantly inhibited”.

And the “Effect on IL-1β-stimulated production of 3 cytokines (GM-CSF, IL-8, and RANTES)” value ([1]; less potency compared to dexamethasone)?
Its value is “significantly inhibited”.

And the “Production of PGE2 by IL-1β-induced HConF” value [2]?
Its value is “successfully inhibits”.

What about the “Production of COX-2 by IL-1β-induced HConF” value [3] of the same compound?
The value was “successfully inhibits”.

From patent US20120065228A1, “COMPOSITIONS AND METHODS FOR TREATING, CONTROLLING, REDUCING, OR AMELIORATING OCULAR INFLAMMATORY WITH LOWER RISK OF INCREASED INTRAOCULAR PRESSURE” (priority 2007, published 2012)
